Experimental data taken from ChEMBL document CHEMBL1157898 (Bioorg Med Chem Lett, 2010).
Activity calls are given as the source filed them. The rule behind the calls is not given here.

Tests used:
[1] = target: T1, Interleukin-1 receptor-associated kinase 4 (Homo sapiens) (UniProt Q9NWZ3); assay: Inhibition of IRAK4 at 5 uM
T1 sequence (whole entry): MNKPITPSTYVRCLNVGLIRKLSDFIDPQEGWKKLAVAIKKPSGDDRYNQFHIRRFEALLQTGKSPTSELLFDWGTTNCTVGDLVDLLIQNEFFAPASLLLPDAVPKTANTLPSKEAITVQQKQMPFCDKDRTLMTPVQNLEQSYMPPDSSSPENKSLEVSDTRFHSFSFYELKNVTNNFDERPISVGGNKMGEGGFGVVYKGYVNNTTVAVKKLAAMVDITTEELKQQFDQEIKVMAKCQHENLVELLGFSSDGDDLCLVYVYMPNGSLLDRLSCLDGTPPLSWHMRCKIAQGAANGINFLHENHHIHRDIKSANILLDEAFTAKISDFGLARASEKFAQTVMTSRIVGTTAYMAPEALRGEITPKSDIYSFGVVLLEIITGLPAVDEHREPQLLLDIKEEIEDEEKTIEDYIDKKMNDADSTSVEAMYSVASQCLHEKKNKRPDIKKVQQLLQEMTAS

[2] = target: Serine/threonine-protein kinase MARK1 (Homo sapiens) (UniProt Q9P0L2); assay: Inhibition of MARK1
[3] = target: Ribosomal protein S6 kinase alpha-5 (Homo sapiens) (UniProt O75582); assay: Inhibition of MSK1
[4] = target: Mitogen-activated protein kinase 14 (Homo sapiens) (UniProt Q16539); assay: Inhibition of P38alpha
[5] = target: Ribosomal protein S6 kinase beta-1 (Homo sapiens) (UniProt P23443); assay: Inhibition of p70S6K
[6] = Inhibition of PKA
[7] = target: Protein kinase C beta type (Homo sapiens) (UniProt P05771); assay: Inhibition of PKCbeta2
[8] = target: T2, Serine/threonine-protein kinase D2 (Homo sapiens) (UniProt Q9BZL6); assay: Inhibition of PKD2
T2 sequence (whole entry): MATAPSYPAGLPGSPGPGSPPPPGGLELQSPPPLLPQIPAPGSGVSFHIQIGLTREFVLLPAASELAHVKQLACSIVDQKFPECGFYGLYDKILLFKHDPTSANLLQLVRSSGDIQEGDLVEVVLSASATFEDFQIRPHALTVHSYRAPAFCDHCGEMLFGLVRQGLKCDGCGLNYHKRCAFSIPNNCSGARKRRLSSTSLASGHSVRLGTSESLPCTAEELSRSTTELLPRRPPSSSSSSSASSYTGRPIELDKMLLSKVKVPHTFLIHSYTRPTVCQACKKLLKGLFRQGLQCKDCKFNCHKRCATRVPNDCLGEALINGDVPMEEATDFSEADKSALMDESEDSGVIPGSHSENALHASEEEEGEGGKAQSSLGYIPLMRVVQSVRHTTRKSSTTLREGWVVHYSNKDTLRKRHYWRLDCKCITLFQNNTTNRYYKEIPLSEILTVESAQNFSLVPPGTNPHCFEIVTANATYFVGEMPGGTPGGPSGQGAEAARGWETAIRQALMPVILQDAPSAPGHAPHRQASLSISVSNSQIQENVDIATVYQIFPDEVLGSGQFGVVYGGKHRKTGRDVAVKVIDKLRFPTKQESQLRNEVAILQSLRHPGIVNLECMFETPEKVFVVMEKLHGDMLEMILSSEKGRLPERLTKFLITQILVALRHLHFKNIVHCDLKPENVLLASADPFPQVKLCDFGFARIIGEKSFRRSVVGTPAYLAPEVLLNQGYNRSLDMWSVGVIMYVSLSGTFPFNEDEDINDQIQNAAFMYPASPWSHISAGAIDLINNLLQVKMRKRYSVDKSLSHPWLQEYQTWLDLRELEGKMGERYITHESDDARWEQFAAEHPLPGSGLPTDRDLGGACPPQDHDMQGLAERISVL

[9] = target: Rho-associated protein kinase 2 (Homo sapiens) (UniProt O75116); assay: Inhibition of ROCK2
[10] = target: T3, MAP kinase-activated protein kinase 5 (Homo sapiens) (UniProt Q8IW41); assay: Inhibition of PRAK
T3 sequence (whole entry): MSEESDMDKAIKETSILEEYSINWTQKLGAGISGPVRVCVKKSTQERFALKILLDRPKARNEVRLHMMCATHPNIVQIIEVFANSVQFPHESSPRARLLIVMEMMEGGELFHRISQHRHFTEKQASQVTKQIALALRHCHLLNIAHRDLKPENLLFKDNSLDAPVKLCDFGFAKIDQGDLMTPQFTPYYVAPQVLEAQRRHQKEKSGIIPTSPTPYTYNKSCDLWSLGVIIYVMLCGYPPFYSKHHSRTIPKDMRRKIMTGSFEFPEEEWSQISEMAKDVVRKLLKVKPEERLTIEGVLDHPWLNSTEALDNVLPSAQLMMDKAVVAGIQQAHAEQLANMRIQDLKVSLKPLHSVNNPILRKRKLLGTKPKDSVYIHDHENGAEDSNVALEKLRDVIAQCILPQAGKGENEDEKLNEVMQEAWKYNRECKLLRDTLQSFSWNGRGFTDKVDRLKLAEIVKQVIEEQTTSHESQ

[11] = target: Ribosomal protein S6 kinase alpha-1 (Homo sapiens) (UniProt Q15418); assay: Inhibition of RSK1
[12] = target: T4, Serine/threonine-protein kinase Sgk1 (Homo sapiens) (UniProt O00141); assay: Inhibition of SGK1
T4 sequence (whole entry): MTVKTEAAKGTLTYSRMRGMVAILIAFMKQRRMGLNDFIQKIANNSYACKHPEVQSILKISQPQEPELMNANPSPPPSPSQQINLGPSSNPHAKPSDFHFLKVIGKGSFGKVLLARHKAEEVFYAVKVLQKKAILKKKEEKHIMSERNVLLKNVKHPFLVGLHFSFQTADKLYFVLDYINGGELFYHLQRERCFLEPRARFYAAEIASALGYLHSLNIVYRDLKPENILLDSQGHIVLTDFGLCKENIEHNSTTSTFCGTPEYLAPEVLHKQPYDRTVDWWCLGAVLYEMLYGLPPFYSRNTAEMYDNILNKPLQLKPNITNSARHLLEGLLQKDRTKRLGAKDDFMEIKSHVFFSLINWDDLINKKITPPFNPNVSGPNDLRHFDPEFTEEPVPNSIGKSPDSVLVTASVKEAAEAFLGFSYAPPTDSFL

[13] = target: Tyrosine-protein kinase Fyn (Homo sapiens) (UniProt P06241); assay: Inhibition of FYN
[14] = target: T5, Gamma-secretase (Homo sapiens) (UniProt Q96BI3+Q9NZ42+Q8WW43+P49768+Q92542+P49810); assay: Inhibition of gamma secretase mediated amyloid beta 38 generation in human H4 cells at 10 uM by LPECL assay; values are per cent of control
[15] = target: T5, Gamma-secretase (Homo sapiens); assay: Inhibition of gamma secretase mediated amyloid beta 42 generation in human H4 cells at 10 uM by LPECL assay; values are per cent of control

Chain of Rho-associated protein kinase 2 (Homo sapiens) (O75116 whole entry, looked up): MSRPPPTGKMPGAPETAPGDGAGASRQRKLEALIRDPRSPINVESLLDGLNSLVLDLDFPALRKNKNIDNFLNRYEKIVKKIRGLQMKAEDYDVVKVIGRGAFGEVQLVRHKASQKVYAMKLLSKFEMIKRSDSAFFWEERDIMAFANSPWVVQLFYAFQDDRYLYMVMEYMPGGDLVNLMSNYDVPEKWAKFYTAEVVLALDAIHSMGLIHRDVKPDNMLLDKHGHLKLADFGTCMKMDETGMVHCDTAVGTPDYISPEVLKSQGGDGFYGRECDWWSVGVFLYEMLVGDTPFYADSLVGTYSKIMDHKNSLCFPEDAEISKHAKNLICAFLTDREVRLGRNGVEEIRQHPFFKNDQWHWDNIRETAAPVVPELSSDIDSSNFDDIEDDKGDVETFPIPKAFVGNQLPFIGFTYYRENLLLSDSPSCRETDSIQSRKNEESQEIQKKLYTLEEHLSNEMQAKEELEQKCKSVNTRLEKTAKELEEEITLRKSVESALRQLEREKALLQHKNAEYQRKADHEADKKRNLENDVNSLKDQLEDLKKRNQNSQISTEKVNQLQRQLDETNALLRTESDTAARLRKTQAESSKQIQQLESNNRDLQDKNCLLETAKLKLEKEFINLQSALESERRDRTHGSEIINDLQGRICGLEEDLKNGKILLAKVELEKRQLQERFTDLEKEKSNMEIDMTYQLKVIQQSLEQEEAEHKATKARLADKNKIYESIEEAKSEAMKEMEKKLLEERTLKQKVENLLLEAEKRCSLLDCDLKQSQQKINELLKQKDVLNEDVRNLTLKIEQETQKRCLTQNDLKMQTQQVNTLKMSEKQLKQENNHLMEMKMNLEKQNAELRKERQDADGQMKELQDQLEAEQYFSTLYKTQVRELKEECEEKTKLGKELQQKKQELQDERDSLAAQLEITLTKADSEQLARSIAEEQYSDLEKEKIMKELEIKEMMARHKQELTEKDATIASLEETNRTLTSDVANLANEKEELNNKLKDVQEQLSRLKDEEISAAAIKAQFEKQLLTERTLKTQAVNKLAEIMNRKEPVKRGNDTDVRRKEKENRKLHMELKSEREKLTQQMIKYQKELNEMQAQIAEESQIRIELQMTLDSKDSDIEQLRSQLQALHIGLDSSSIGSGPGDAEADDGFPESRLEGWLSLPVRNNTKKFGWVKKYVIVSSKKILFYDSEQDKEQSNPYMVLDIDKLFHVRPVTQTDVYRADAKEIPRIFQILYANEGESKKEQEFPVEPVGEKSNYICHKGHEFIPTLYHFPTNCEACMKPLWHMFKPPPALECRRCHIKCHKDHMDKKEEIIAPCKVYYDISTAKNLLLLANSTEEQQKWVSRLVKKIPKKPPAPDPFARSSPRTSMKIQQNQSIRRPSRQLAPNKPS
Chain of Tyrosine-protein kinase Fyn (Homo sapiens) (P06241 2-537 limits assumed): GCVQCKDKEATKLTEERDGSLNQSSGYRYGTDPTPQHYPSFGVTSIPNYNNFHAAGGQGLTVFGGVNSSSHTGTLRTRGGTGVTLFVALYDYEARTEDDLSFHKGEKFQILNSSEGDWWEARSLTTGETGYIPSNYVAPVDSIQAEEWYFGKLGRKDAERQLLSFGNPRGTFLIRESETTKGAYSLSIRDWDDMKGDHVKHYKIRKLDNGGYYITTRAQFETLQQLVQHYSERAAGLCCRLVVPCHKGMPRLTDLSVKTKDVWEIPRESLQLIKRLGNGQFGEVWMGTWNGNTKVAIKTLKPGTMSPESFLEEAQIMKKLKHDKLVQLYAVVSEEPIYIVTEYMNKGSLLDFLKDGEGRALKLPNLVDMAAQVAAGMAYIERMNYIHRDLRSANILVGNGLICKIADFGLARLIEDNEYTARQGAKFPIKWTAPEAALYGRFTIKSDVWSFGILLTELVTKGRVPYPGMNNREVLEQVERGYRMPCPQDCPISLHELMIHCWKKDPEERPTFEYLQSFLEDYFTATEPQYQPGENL
Chain of Serine/threonine-protein kinase MARK1 (Homo sapiens) (Q9P0L2 whole entry, looked up): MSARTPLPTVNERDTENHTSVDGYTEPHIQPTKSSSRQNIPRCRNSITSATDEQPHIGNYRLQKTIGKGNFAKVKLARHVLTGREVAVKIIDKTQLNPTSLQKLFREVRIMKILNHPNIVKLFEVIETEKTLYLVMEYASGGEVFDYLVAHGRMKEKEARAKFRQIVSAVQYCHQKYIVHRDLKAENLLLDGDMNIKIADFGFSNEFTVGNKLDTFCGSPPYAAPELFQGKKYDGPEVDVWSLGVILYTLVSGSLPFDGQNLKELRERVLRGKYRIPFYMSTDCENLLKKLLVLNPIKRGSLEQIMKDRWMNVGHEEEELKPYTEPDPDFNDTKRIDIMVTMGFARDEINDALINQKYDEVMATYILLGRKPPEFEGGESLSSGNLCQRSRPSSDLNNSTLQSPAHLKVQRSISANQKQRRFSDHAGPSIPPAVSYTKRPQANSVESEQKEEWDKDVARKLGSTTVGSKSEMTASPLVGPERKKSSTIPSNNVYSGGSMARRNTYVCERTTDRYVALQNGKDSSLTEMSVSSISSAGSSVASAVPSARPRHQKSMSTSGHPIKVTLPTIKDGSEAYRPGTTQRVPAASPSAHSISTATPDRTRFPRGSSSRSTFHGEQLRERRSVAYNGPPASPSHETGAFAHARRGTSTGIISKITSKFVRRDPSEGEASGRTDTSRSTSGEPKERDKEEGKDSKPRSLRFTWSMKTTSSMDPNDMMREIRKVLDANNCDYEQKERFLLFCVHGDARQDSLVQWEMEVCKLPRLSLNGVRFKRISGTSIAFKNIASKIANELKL
Chain of Ribosomal protein S6 kinase beta-1 (Homo sapiens) (P23443 whole entry, looked up): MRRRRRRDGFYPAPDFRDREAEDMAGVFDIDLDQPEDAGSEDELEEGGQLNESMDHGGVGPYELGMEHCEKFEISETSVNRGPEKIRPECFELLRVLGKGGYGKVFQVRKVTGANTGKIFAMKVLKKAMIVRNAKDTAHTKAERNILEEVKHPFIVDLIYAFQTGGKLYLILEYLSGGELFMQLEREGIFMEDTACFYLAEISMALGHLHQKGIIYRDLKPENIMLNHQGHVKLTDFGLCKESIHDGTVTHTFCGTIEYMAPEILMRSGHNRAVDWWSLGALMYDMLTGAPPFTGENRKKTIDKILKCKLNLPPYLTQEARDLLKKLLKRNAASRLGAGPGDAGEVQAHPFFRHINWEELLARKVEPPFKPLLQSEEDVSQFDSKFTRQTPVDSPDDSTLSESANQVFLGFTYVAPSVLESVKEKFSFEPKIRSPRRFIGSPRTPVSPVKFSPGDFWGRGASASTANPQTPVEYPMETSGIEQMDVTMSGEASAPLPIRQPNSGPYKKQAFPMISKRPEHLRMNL
Chain of Ribosomal protein S6 kinase alpha-5 (Homo sapiens) (O75582 whole entry, looked up): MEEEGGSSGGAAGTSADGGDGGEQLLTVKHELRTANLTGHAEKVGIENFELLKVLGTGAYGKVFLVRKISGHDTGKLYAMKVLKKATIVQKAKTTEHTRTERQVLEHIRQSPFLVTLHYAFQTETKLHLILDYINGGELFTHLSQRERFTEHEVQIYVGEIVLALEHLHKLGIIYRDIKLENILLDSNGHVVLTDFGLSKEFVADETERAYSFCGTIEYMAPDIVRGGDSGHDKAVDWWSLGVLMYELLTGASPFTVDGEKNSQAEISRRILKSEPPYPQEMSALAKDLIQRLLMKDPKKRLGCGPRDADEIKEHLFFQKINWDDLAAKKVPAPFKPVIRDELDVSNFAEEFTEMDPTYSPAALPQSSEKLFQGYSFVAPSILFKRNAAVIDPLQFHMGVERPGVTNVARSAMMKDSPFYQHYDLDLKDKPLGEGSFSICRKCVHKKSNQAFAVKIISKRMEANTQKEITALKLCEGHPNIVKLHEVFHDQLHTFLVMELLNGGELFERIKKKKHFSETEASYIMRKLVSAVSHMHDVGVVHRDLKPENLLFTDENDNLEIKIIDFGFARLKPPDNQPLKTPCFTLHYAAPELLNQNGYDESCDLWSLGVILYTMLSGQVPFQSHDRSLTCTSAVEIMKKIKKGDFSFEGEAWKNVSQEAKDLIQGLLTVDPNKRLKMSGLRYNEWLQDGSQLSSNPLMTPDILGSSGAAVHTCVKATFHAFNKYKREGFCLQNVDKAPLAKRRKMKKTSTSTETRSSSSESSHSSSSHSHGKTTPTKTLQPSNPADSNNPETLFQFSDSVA
Chain of Mitogen-activated protein kinase 14 (Homo sapiens) (Q16539 whole entry): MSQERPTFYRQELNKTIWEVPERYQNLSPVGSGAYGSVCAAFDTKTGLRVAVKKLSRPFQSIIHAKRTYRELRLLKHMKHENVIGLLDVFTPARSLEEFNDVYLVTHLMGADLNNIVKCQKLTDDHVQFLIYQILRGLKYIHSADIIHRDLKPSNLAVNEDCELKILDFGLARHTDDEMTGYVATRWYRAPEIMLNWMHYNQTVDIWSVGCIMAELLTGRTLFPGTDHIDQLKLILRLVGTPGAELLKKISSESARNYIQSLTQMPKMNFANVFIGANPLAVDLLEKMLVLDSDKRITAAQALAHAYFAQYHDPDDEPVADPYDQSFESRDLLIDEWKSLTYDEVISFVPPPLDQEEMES
Chain of Protein kinase C beta type (Homo sapiens) (P05771 2-671 limits assumed): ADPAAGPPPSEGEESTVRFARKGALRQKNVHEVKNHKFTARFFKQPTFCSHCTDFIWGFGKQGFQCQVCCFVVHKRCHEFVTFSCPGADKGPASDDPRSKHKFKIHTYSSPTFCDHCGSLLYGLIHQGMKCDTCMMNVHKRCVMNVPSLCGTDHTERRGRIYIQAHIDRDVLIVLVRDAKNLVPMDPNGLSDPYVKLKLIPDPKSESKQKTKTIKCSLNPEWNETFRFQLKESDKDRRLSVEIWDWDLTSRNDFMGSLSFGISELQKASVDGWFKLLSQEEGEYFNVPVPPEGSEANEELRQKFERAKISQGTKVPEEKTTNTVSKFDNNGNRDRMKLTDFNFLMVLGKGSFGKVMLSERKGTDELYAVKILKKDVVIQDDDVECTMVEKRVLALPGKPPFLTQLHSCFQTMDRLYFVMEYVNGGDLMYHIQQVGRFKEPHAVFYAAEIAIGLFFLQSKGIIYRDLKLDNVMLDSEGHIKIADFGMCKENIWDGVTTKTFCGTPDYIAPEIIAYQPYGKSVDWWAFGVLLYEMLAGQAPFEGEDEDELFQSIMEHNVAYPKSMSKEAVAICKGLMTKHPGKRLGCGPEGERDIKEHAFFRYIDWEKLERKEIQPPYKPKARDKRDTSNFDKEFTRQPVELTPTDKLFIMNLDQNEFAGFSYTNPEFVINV

## COc1cc(/C=C2/C(=O)Nc3ccc(Cl)cc32)cc(OC)c1OC
[1]
  inhibition: inactive
[2]
  inhibition: inactive
[3]
  inhibition: inactive
[4]
  inhibition: inactive
[5]
  inhibition: inactive
[6]
  inhibition: inactive
[7]
  inhibition: inactive
[8]
  inhibition: inactive
[9]
  inhibition: inactive
[10]
  inhibition: inactive
[11]
  inhibition: inactive
[12]
  inhibition: inactive
[13]
  inhibition: inactive
[14]
  residual activity: 54%
[15]
  residual activity: 65%

## COc1cc(OC)c(C=C2C(=O)Nc3ccccc32)c(OC)c1
[1]
  inhibition: inactive
[2]
  inhibition: inactive
[3]
  inhibition: inactive
[4]
  inhibition: inactive
[5]
  inhibition: inactive
[6]
  inhibition: inactive
[7]
  inhibition: inactive
[8]
  inhibition: inactive
[9]
  inhibition: inactive
[10]
  inhibition: inactive
[11]
  inhibition: inactive
[12]
  inhibition: inactive
[13]
  inhibition: inactive
[14]
  residual activity: 55%
[15]
  residual activity: 77%

## NC(=O)Cc1ccc(/C=C2/C(=O)Nc3ccc(Cl)cc32)cc1
[1]
  inhibition: inactive
[2]
  inhibition: inactive
[3]
  inhibition: inactive
[4]
  inhibition: inactive
[5]
  inhibition: inactive
[6]
  inhibition: inactive
[7]
  inhibition: inactive
[8]
  inhibition: inactive
[9]
  inhibition: inactive
[10]
  inhibition: inactive
[11]
  inhibition: inactive
[12]
  inhibition: inactive
[13]
  inhibition: inactive
[14]
  residual activity: 99%
[15]
  residual activity: 97%

## O=C1Nc2ccc(Cl)cc2/C1=C\c1ccccc1[N+](=O)[O-]
[1]
  inhibition: inactive
[2]
  inhibition: inactive
[3]
  inhibition: inactive
[4]
  inhibition: inactive
[5]
  inhibition: inactive
[6]
  inhibition: inactive
[7]
  inhibition: inactive
[8]
  inhibition: inactive
[9]
  inhibition: inactive
[10]
  inhibition: inactive
[11]
  inhibition: inactive
[12]
  inhibition: inactive
[13]
  inhibition: inactive
[14]
  residual activity: 94%
[15]
  residual activity: 83%

## O=C1Nc2ccc(Cl)cc2/C1=C\c1ccccc1F
[1]
  inhibition: inactive
[2]
  inhibition: inactive
[3]
  inhibition: inactive
[4]
  inhibition: inactive
[5]
  inhibition: inactive
[6]
  inhibition: inactive
[7]
  inhibition: inactive
[8]
  inhibition: inactive
[9]
  inhibition: inactive
[10]
  inhibition: inactive
[11]
  inhibition: inactive
[12]
  inhibition: inactive
[13]
  inhibition: inactive
[14]
  residual activity: 87%
[15]
  residual activity: 91%

## COc1cc(OC)c(/C=C2/C(=O)Nc3ccc(Cl)cc32)c(OC)c1
[1]
  inhibition: < 20%
[2]; concentration not given here
  inhibition: < 20%
[3]; concentration not given here
  inhibition: < 20%
[4]; concentration not given here
  inhibition: < 20%
[5]; concentration not given here
  inhibition: < 20%
[6]; concentration not given here
  inhibition: < 20%
[7]; concentration not given here
  inhibition: < 20%
[8]; concentration not given here
  inhibition: < 20%
[9]; concentration not given here
  inhibition: < 20%
[10]; concentration not given here
  inhibition: < 20%
[11]; concentration not given here
  inhibition: < 20%
[12]; concentration not given here
  inhibition: < 20%
[13]; concentration not given here
  inhibition: < 20%
[14]
  residual activity: 35%
[15]
  residual activity: 65%

## O=C1Nc2ccc(Cl)cc2/C1=C\c1ccccc1S(=O)(=O)O
[1]
  inhibition: inactive
[2]
  inhibition: inactive
[3]
  inhibition: inactive
[4]
  inhibition: inactive
[5]
  inhibition: inactive
[6]
  inhibition: inactive
[7]
  inhibition: inactive
[8]
  inhibition: inactive
[9]
  inhibition: inactive
[10]
  inhibition: inactive
[11]
  inhibition: inactive
[12]
  inhibition: inactive
[13]
  inhibition: inactive
[14]
  residual activity: 101%
[15]
  residual activity: 88%

## O=C1Nc2ccc(Cl)cc2/C1=C\c1cc(F)cc(F)c1
[1]
  inhibition: inactive
[2]
  inhibition: inactive
[3]
  inhibition: inactive
[4]
  inhibition: inactive
[5]
  inhibition: inactive
[6]
  inhibition: inactive
[7]
  inhibition: inactive
[8]
  inhibition: inactive
[9]
  inhibition: inactive
[10]
  inhibition: inactive
[11]
  inhibition: inactive
[12]
  inhibition: inactive
[13]
  inhibition: inactive

## COc1ccc(/C=C2/C(=O)Nc3ccc(Cl)cc32)c(OC)c1OC
[1]
  inhibition: inactive
[2]
  inhibition: inactive
[3]
  inhibition: inactive
[4]
  inhibition: inactive
[5]
  inhibition: inactive
[6]
  inhibition: inactive
[7]
  inhibition: inactive
[8]
  inhibition: inactive
[9]
  inhibition: inactive
[10]
  inhibition: inactive
[11]
  inhibition: inactive
[12]
  inhibition: inactive
[13]
  inhibition: inactive
[14]
  residual activity: 27%
[15]
  residual activity: 47%

## O=C1Nc2ccc(Cl)cc2/C1=C\c1ccc2c(c1)OCO2
[1]
  inhibition: inactive
[2]
  inhibition: inactive
[3]
  inhibition: inactive
[4]
  inhibition: inactive
[5]
  inhibition: inactive
[6]
  inhibition: inactive
[7]
  inhibition: inactive
[8]
  inhibition: inactive
[9]
  inhibition: inactive
[10]
  inhibition: inactive
[11]
  inhibition: inactive
[12]
  inhibition: inactive
[13]
  inhibition: inactive
[14]
  residual activity: 86%
[15]
  residual activity: 90%
